Data reported in US5053415A, “Pyridine derivatives” (Imperial Chemical Industries PLC, priority 1988, dated 1991).

Experiments:
TXA2 synthase = molecular target: T1, TXA2 synthase (Homo sapiens, UniProt P24557); assay: test (e): human platelet microsomal TXA2 synthase inhibition (conversion of arachidonic acid to TXB2); format: biochemical
T1 construct: human platelet microsomal TXA2 synthase preparation; from tissue; host or cells: human platelet microsomes
T1 sequence (P24557 1-533): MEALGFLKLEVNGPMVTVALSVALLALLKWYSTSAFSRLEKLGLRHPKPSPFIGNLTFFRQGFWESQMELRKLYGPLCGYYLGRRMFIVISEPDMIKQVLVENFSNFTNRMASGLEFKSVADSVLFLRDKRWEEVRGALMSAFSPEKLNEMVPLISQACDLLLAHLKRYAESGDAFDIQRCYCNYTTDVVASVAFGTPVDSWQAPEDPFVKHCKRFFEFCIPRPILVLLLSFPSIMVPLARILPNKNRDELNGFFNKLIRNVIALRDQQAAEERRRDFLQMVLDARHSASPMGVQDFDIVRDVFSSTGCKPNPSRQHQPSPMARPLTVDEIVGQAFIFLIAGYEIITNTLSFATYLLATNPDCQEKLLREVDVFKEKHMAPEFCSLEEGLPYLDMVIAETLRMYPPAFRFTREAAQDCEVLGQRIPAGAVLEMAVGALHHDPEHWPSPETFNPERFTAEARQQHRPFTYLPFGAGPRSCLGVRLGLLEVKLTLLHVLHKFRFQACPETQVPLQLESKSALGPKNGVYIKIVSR

thromboxane receptor = molecular target: T2, thromboxane receptor (Homo sapiens, UniProt P21731); assay: test (b): blood platelet aggregation test, U46619-stimulated aggregation of human citrated platelet-rich plasma; format: cell-based; details: averaged over several concentrations
T2 construct: human, citrated, platelet-rich plasma; endogenous in cells; host or cells: human platelets in citrated platelet-rich plasma
T2 sequence (P21731 1-343): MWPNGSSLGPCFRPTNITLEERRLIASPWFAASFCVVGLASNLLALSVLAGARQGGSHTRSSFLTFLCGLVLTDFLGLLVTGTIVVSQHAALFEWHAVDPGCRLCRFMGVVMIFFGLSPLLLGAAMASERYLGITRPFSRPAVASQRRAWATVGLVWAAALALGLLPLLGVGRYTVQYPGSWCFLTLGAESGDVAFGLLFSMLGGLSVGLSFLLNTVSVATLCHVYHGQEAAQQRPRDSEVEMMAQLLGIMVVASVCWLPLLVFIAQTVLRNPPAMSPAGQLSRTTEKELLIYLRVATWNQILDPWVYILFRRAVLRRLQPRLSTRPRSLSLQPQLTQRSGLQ
Description: (b) a blood platelet aggregation test based on that described by Born (Nature, 1962, 194, 927-929) and involving:
(i) aggregating human, citrated, platelet-rich plasma by addition of the TXA2 mimetic agent U46619 so that a dose-response curve is generated;
(ii) generating a dose-response curve for U46619 stimulated platlet aggregation in the presence of increasing amounts of test compound (generally in the range 10^-5 M to 10^-10 M); and
(iii) calculating a KB value indicating potency of TXA2 antagonism for the test compound, averaged over several concentrations, from the calculated 50% response value for U46619 aggregation in the presence and absence of test compound; or […]

IC50 (TXA2 synthase): 40 nM | Kb (thromboxane receptor): 300 nM
Compound: COc1ccc(OC(C)(C)[C@H]2OC[C@@H](C/C=C\CCC(=O)O)[C@@H](c3cccnc3)O2)cc1 (relative stereo) [Example 1, 4(Z)-6[(2,4,5-cis)-2-(1-(4-methoxyphenoxy)-1-methylethyl)-4-(3-pyridyl)-1,3-dioxan-5-yl]-hexenoic acid]
